Target: T1, CDK2/cyclin A (Homo sapiens, UniProt P24941)
T1 construct: made in house; host or cells: insect ('worm') cells co-infected with baculoviruses
Test: CDK2 inhibitory activity (CDK2/cyclin A, [gamma-32P] ATP, histon H1 or Rb protein substrate)
Type: biochemical
Conditions: first IC50 column (c1) of Table 1
From the text: CDK2 enzyme was obtained from either extract from the worm cell co-infected with baculovirus which expresses a CDK2 gene and baculovirus which expresses a cyclin A gene, or active enzyme purified therefrom. CDK4 was also obtained from either extract from the worm cell co-infected with baculovirus which expresses a CDK4 gene and baculovirus which expresses a cyclin D1 gene. As substrates, histon H1 or Rb protein was used for CDK2, and Rb protein for CDK4. The radioactive activities in substrates were determined by reacting compounds diluted with each concentration with a proper quantity of CDK2/cyclin A or CDK4/cyclin D1 and substrate protein, and [gamma-32P labeled] ATP, and then separating the substrates.
Inhibitory abilities of inhibitors according to the present invention for each enzyme activity were expressed as IC50 values, which were determined in accordance with the method as described above.

| Compound | IC50 [µM] |
| --- | --- |
| CS(=O)(=O)c1ccc(CC(=O)Nc2n[nH]c3ccc(N4CCCS4(=O)=O)cc23)cc1 [Compound 29, N-[5-(1,1-dioxo-1λ^6-isothiazolidin-2-yl)-1H-indazol-3-yl]-2-[4-(methylsulfonyl)phenyl]acetamide] | < 0.05 |
| CCOCCOCCOc1ccc(CC(=O)Nc2n[nH]c3ccc(N4CCCS4(=O)=O)cc23)cc1 [Compound 59, N-[5-(1,1-dioxo-1λ^6-isothiazolidin-2-yl)-1H-indazol-3-yl]-2-4-[2-(2-ethoxyethoxy)ethoxy]phenylacetamide] | < 0.1 |
| NCCOc1ccc(CC(=O)Nc2n[nH]c3ccc(N4CCCS4(=O)=O)cc23)cc1 [Compound 75, 2-[4-(2-aminoethoxy)phenyl]-N-[5-(1,1-dioxo-1λ^6-isothiazolidin-2-yl)-1H-indazol-3-yl]acetamide] | < 0.1 |
| COc1ccc(CC(=O)Nc2n[nH]c3ccc(N4CCCS4(=O)=O)cc23)cc1 [Compound 38, N-[5-(1,1-dioxo-1λ^6-isothiazolidin-2-yl)-1H-indazol-3-yl]-2-(4-methoxyphenyl)acetamide] | < 0.1 |
| CN1CCN(CC(=O)Nc2n[nH]c3ccc(N4CCCS4(=O)=O)cc23)CC1 [Compound 30, N-[5-(1,1-dioxo-1λ^6-isothiazolidin-2-yl)-1H-indazol-3-yl]-2-(4-methyl-1-piperazinyl)acetamide] | < 10 |
| Cc1ccc(CC(=O)Nc2n[nH]c3ccc(N4CCCS4(=O)=O)cc23)cc1 [Compound 28, N-[5-(1,1-dioxo-1λ^6-isothiazolidin-2-yl)-1H-indazol-3-yl]-2-(4-methylphenyl)acetamide] | < 0.05 |
| CCNc1ccc(CC(=O)Nc2n[nH]c3ccc(N4CCCS4(=O)=O)cc23)cc1 [Compound 72, N-[5-(1,1-dioxo-1λ^6-isothiazolidin-2-yl)-1H-indazol-3-yl]-2-[4-(ethylamino)phenyl]acetamide] | < 0.05 |
| CCOc1ccccc1N1CCN(CC(=O)Nc2n[nH]c3ccc(N4CCCS4(=O)=O)cc23)CC1 [Compound 52, N-[5-(1,1-dioxo-1λ^6-isothiazolidin-2-yl)-1H-indazol-3-yl]-2-[4-(2-ethoxyphenyl)-1-piperazinyl]acetamide] | < 10 |
| O=C(Cc1ccc(Cn2ccnc2)cc1)Nc1n[nH]c2ccc(N3CCCS3(=O)=O)cc12 [Compound 46, N-[5-(1,1-dioxo-1λ^6-isothiazolidin-2-yl)-1H-indazol-3-yl]-2-[4-(1H-imidazole-1-ylmethyl)phenyl]acetamide] | < 1 |
| CCOc1ccc(CC(=O)Nc2n[nH]c3ccc(N4CCCS4(=O)=O)cc23)cc1S(=O)(=O)N1CCOCC1 [Compound 79, N-[5-(1,1-dioxo-1λ^6-isothiazolidin-2-yl)-1H-indazol-3-yl]-2-[4-ethoxy-3-(4-morpholinylsulfonyl)phenyl]acetamide] | < 1 |
| CCOc1ccc(CC(=O)Nc2n[nH]c3ccc(N4CCCS4(=O)=O)cc23)cc1[N+](=O)[O-] [Compound 67, N-[5-(1,1-dioxo-1λ^6-isothiazolidin-2-yl)-1H-indazol-3-yl]-2-(4-ethoxy-3-nitrophenyl)acetamide] | < 0.05 |
| Cc1cccc(CC(=O)Nc2n[nH]c3ccc(N4CCCS4(=O)=O)cc23)c1 [Compound 27, N-[5-(1,1-dioxo-1λ^6-isothiazolidin-2-yl)-1H-indazol-3-yl]-2-(3-methylphenyl)acetamide] | < 0.05 |
| O=C(Cc1cccc(Br)c1)Nc1n[nH]c2ccc(N3CCCS3(=O)=O)cc12 [Compound 11, 2-(3-bromophenyl)-N-[5-(1,1-dioxo-1λ^6-isothiazolidin-2-yl)-1H-indazol-3-yl]acetamide] | < 0.05 |
| O=S1(=O)CCCN1c1ccc2[nH]nc(NC(=S)Cc3ccccc3)c2c1 [Compound 13, N-[5-(1,1-dioxo-1λ^6-isothiazolidin-2-yl)-1H-indazol-3-yl]-2-phenylethanethioamide] | < 10 |
| O=C(Cc1ccc(N2CCOCC2)cc1)Nc1n[nH]c2ccc(N3CCCS3(=O)=O)cc12 [Compound 35, N-[5-(1,1-dioxo-1λ^6-isothiazolidin-2-yl)-1H-indazol-3-yl]-2-[4-(1-morpholinyl)phenyl]acetamide] | < 0.1 |
| O=C(Nc1n[nH]c2ccc(N3CCCS3(=O)=O)cc12)C1(c2ccccc2)CCCC1 [Compound 55, N-[5-(1,1-dioxo-1λ^6-isothiazolidin-2-yl)-1H-indazol-3-yl]-1-phenylcyclopentanecarboxamide] | < 100 |
| CCOc1cccc(CC(=O)Nc2n[nH]c3ccc(N4CCCS4(=O)=O)cc23)c1 [Compound 78, N-[5-(1,1-dioxo-1λ^6-isothiazolidin-2-yl)-1H-indazol-3-yl]-2-(3-ethoxyphenyl)acetamide] | < 0.05 |
| O=C(Cc1ccc(O)cc1)Nc1n[nH]c2ccc(N3CCCS3(=O)=O)cc12 [Compound 4, N-[5-(1,1-dioxo-1λ^6-isothiazolidin-2-yl)-1H-indazol-3-yl]-2-(4-hydroxyphenyl)acetamide] | < 0.05 |

Second part, the compound after the results:

| IC50 [µM] | Compound |
| --- | --- |
| < 0.05 | O=C(Cc1ccc(Br)cc1)Nc1n[nH]c2ccc(N3CCCS3(=O)=O)cc12 [Compound 12, 2-(4-bromophenyl)-N-[5-(1,1-dioxo-1λ^6-isothiazolidin-2-yl)-1H-indazol-3-yl]acetamide] |
| < 0.5 | O=C(Cn1cnc(-c2ccc(-c3ccccc3)cc2)c1)Nc1n[nH]c2ccc(N3CCCS3(=O)=O)cc12 [Compound 63, 2-(4-[1,1′-biphenyl]-4-yl-1H-imidazol-1-yl)-N-[5-(1,1-dioxo-1λ^6-isothiazolidin-2-yl)-1H-indazol-3-yl]acetamide] |
| < 0.05 | O=C(Cc1cccc2ccccc12)Nc1n[nH]c2ccc(N3CCCS3(=O)=O)cc12 [Compound 16, N-[5-(1,1-dioxo-1λ^6-isothiazolidin-2-yl)-1H-indazol-3-yl]-2-(1-naphthyl)acetamide] |
| < 0.5 | O=C(Cc1ccc(N(Cc2ccccc2)Cc2ccccc2)cc1)Nc1n[nH]c2ccc(N3CCCS3(=O)=O)cc12 [Compound 5, 2-[4-(dibenzylamino)phenyl]-N-[5-(1,1-dioxo-1λ^6-isothiazolidin-2-yl)-1H-indazol-3-yl]acetamide] |
| < 0.05 | Nc1cccc(CC(=O)Nc2n[nH]c3ccc(N4CCCS4(=O)=O)cc23)c1 [Compound 21, 2-(3-aminophenyl)-N-[5-(1,1-dioxo-1λ^6-isothiazolidin-2-yl)-1H-indazol-3-yl]acetamide] |
| < 0.1 | O=C(Cc1ccc(CN2CCOCC2)cc1)Nc1n[nH]c2ccc(N3CCCS3(=O)=O)cc12 [Compound 43, N-[5-(1,1-dioxo-1λ^6-isothiazolidin-2-yl)-1H-indazol-3-yl]-2-[4-(4-morpholinylmethyl)phenyl]acetamide] |
| < 1 | CCOc1ccc(CC(=O)Nc2n[nH]c3ccc(N4CCCS4(=O)=O)cc23)cc1S(=O)(=O)N1CCN(C)CC1 [Compound 81, N-[5-(1,1-dioxo-1λ^6-isothiazolidin-2-yl)-1H-indazol-3-yl]-2-4-ethoxy-3-[(4-methyl-1-piperazinyl)sulfonyl]phenylacetamide] |
| < 0.1 | COCCOCCOCCOc1ccc(CC(=O)Nc2n[nH]c3ccc(N4CCCS4(=O)=O)cc23)cc1 [Compound 66, N-[5-(1,1-dioxo-1λ^6-isothiazolidin-2-yl)-1H-indazol-3-yl]-2-(4-2-[2-(2-methoxyethoxy)ethoxy]ethoxyphenyl)acetamide] |
| < 0.5 | CCNc1cccc(CC(=O)Nc2n[nH]c3ccc(N4CCCS4(=O)=O)cc23)c1 [Compound 69, N-[5-(1,1-dioxo-1λ^6-isothiazolidin-2-yl)-1H-indazol-3-yl]-2-[3-(ethylamino)phenyl]acetamide] |
